Tests used:
[1] = target: T1, Estrogen receptor (Ovis aries) (UniProt P49885+Q9TU15); assay: Relative binding affinity for lamb uterine estrogen receptor at 4C; assay type: protein assay
[2] = target: T1, Estrogen receptor (Ovis aries); assay: Relative binding affinity for lamb uterine estrogen receptor at 25 degree C; assay type: protein assay

Row | RBA [1] | RBA [2] | SMILES
1 | 29 | 65 | CO[C@H]1C[C@@]2(C)[C@@H](CC[C@@]2(O)/C=C/Cl)[C@@H]2CCc3cc(O)ccc3[C@H]21
2 | 98 | 1200 | C=C[C@H]1C[C@@]2(C)[C@@H](CC[C@@]2(O)/C=C\I)[C@@H]2CCc3cc(O)ccc3[C@H]21
3 | 48 | 513 | CO[C@H]1C[C@@]2(C)[C@@H](CC[C@@]2(O)/C=C\I)[C@@H]2CCc3cc(O)ccc3[C@H]21
4 | 107 | 724 | C=C[C@H]1C[C@@]2(C)[C@@H](CC[C@@]2(O)/C=C/Cl)[C@@H]2CCc3cc(O)ccc3[C@H]21
5 | 102 | 89 | C[C@]12CC[C@@H]3c4ccc(O)cc4CC[C@H]3[C@@H]1CC[C@@]2(O)/C=C/Cl
6 | 77 | 62 | C[C@]12CC[C@@H]3c4ccc(O)cc4CC[C@H]3[C@@H]1CC[C@@]2(O)/C=C/I
7 | 202 | 776 | C[C@]12CC[C@@H]3c4ccc(O)cc4CC[C@H]3[C@@H]1CC[C@@]2(O)/C=C\I
8 | 22 | 195 | CO[C@H]1C[C@@]2(C)[C@@H](CC[C@@]2(O)/C=C\Cl)[C@@H]2CCc3cc(O)ccc3[C@H]21
9 | 78 | 447 | C=C[C@H]1C[C@@]2(C)[C@@H](CC[C@@]2(O)/C=C/I)[C@@H]2CCc3cc(O)ccc3[C@H]21
10 | 34 | 65 | CO[C@H]1C[C@@]2(C)[C@@H](CC[C@@]2(O)/C=C/I)[C@@H]2CCc3cc(O)ccc3[C@H]21
11 | 101 | 704 | C=C[C@H]1C[C@@]2(C)[C@@H](CC[C@@]2(O)/C=C\Cl)[C@@H]2CCc3cc(O)ccc3[C@H]21
12 | 126 | 199 | C[C@]12CC[C@@H]3c4ccc(O)cc4CC[C@H]3[C@@H]1CC[C@@]2(O)/C=C\Cl
